According to PubChem BioAssay AID1197 (NMMLSC, 2008):
Active and inactive are the calls of the source. No rule for the calls is given here.

system: LNCaP cell loss, flow cytometry event count, 4 d; test: LNCaP cell killing by flow cytometry event count, dose response, cytotoxicity control for prostate cell differentiation activator project (AID 1197)

SMILES	EC50
COc1ccc(Nc2nc(N)nc(CN3CCC(Cc4ccccc4)CC3)n2)cc1	17 µM (inactive)
CCN(CCNC(=O)C1CCN(Cc2nc(-c3ccc(Cl)cc3)oc2C)CC1)c1ccccc1	8.33 µM
CCN(CCNC(=O)C1CCN(Cc2nc(-c3cccc(Cl)c3)oc2C)CC1)c1ccccc1	3.07 µM
COc1ccc2cc3cc(C(=O)Nc4ccccc4N4CCN(C)CC4)oc3nc2c1	19.3 µM (inactive)
CCCN(CCC)CCNC(=O)C1CCN(Cc2nc(-c3ccc(Cl)cc3)oc2C)CC1	15.7 µM (inactive)
CN1CCN(CCCNC(=O)c2cc3c(-c4ccc(Cl)cc4)nn(C)c3s2)CC1	12.6 µM (inactive)
